Assay results from patent publication US8263638B2, “Dosing regimens for ion channel modulating compounds” (priority 2004, dated 2012).

Columns and labels:
[1] = tested on: Human Cardiac Electrophysiology; test: Electrophysiological effects of two intravenous doses in patients (Example 1); assay type: in vivo; parameters: AH interval / HV interval / VERP / AERP / QT / QRS / Atrial MAP50: unit not given here; details: for Diastolic BP / HEART RATE / Systolic BP: T = 45 min
Experimental: This example provides the results of a study conducted to determine the electrophysiological effects of two intravenous doses of COMPOUND A. Patients in the study required electrophysiologic studies (with or without radiofrequency ablation) and were from 18 to 75 years of age. Following the study and ablation (if applicable), the atrial MAP catheter was positioned and the following electrophysiological measures were performed: • 1. Intervals reflecting conduction: […] Intervals reflecting repolarization/refractoriness: • a). […] Heart rate, brachial (cuff) blood pressure. Drug Administration: • 1. […] Twenty five minutes after the start of intravenous drug infusion (15 minutes after the end of loading and start of maintenance infusion), all electrophysiological measures were repeated.

[2] = Plasma concentrations of COMPOUND A in electrophysiology study (Example 1); assay type: in vivo; details: human, intravenous, T = 45 min
Experimental: Blood samples for COMPOUND A concentrations were drawn at 0, 10 and 45 minutes after the start of drug infusion, and at discharge the next day.

[3] = COMPOUND A plasma concentrations in acute AF study (Example 2); assay type: in vivo, human
Experimental: A Holter rhythm strip continuously monitored ECG, vital signs (blood pressure and heart rate, BP and HR, respectively) and O2 saturation were recorded every 2 min from the start of infusion to 5 min after, as well as at 15, 30, 60, 120, 240, 360, and 480 min and at discharge and one-week follow-up. Twelve-lead ECGs were obtained before dosing and every minute during infusion to 5 min after, as well as at 15, 30, 60, 120, 240, 360, and 480 min and at discharge, 24 h and one-week follow-up, and at the time of arrhythmia termination or significant rhythm changes. Venous blood samples were drawn for COMPOUND A plasma concentrations at 0, 15, 30, 120, 240, 480 min discharge and at AF termination or significant adverse events.
COMPOUND A doses were infused over 10 min as indicated in the text. Initially a 2 mg/kg infusion was given and if required an additional 3 mg/kg was infused 30 min later in the RSD-2 group. Time is shown relative to the end of the first infusion (T1).

[4] = tested on: atrial fibrillation of 3 hours to 45 days; test: Conversion of recent onset atrial fibrillation to sinus rhythm (Example 3); assay type: in vivo, human; details: for Number of Patients Converted to Sinus Rhythm / Patients (%) Converted to Sinus Rhythm: within 90 minutes
Experimental: The primary endpoint of this study was the proportion of patients with atrial fibrillation duration of 3 hours to 7 days who had treatment-induced conversion to sinus rhythm within 90 minutes of treatment. Secondary endpoints included the time-to-conversion of atrial fibrillation to sinus rhythm in patients with atrial fibrillation duration of 3 hours to 7 days; the proportion of patients with atrial fibrillation of 8 to 45 days who had treatment-induced conversion to sinus rhythm within 90 minutes of treatment, and the proportion of patients in the entire group with atrial fibrillation of 3 hours to 45 days who had treatment-induced conversion to sinus rhythm within 90 minutes of treatment.
336 patients were randomized in a 2:1 ratio of COMPOUND A to placebo (221 patients received COMPOUND A and 115 patients received placebo) and stratified by atrial fibrillation duration of 3 hours to 7 days and 8 to 45 days.
A first 10-minute infusion of a test compound (placebo or 3 mg/kg of COMPOUND A) was given to each patient. A second 10-minute infusion (placebo or 2 mg/kg of COMPOUND A) was given 15 minutes later if atrial fibrillation was not terminated. Safety was assessed by the incidence of adverse events, vital signs, laboratory data, ECG and holter monitoring.

[5] = patients that received only the 2 mg/kg infusion
[6] = 30-day interval following administration
[7] = AF 8-45 days, 3 mg/kg then 2 mg/kg
[8] = AF 3 hr-7 days, 3 mg/kg then 2 mg/kg

COc1ccc(CCO[C@@H]2CCCC[C@H]2N2CC[C@@H](O)C2)cc1OC.Cl [COMPOUND A, (1R,2R)-2-[(3R)-hydroxypyrrolidinyl]-1-(3,4-dimethoxyphenethoxy)cyclohexane monohydrochloride]
AERP 400 Ave Δ ([1]; Dose Level 1): 3.3 ± 5.4%
AERP 400 Ave Δ (Change from Baseline) ([1]; Dose Level 1): 5.0 ± 9.0 ms
SNRT (A1 400) ([1]; Dose Level 1): 1114.4 ± 227.4 ms
SNRT (A1 600) ([1]; Dose Level 1): 1157.8 ± 238.3 ms
Wenckebach Cycle Length ([1]; Dose Level 1): 388.1 ± 94.4 ms
Diastolic BP ([1]; Dose Level 1, 2 mg/kg): 84 ± 12 mm Hg
HEART RATE ([1]; Dose Level 1, 2 mg/kg): 78 ± 11 bpm
Systolic BP ([1]; Dose Level 1, 2 mg/kg): 135 ± 15 mm Hg
AERP ([1]; Dose Level 1, 300 msec): 180.5 ± 15.5
AERP ([1]; Dose Level 1, 400 msec): 195.0 ± 23.8
VERP ([1]; Dose Level 1, 400 msec): 226.7 ± 16.4
AH interval ([1]; Dose Level 1, 400 msec pacing): 134.2 ± 69.2
HV interval ([1]; Dose Level 1, 400 msec pacing): 52.5 ± 13.6
PA interval ([1]; Dose Level 1, 400 msec pacing): 61.8 ± 30.2
PR interval ([1]; Dose Level 1, 400 msec pacing): 239.2 ± 76.7
AERP ([1]; Dose Level 1, 600 msec): 219.5 ± 32.2
VERP ([1]; Dose Level 1, 600 msec): 247.8 ± 22.0
AH interval ([1]; Dose Level 1, 600 msec pacing): 113.8 ± 29.9
HV interval ([1]; Dose Level 1, 600 msec pacing): 50.1 ± 12.6
PA interval ([1]; Dose Level 1, 600 msec pacing): 64.0 ± 22.4
PR interval ([1]; Dose Level 1, 600 msec pacing): 227.7 ± 45.3
Atrial MAP50 ([1]; Dose Level 1, A1 200 msec): 116.4 ± 15.4
Atrial MAP50 ([1]; Dose Level 1, A1 250 msec): 134.2 ± 18.4
Atrial MAP50 ([1]; Dose Level 1, A1 300 msec): 139.5 ± 20.4
Atrial MAP50 ([1]; Dose Level 1, A1 400 msec): 152.6 ± 19.7
QRS ([1]; Dose Level 1, A1 400 msec): 87.0 ± 6.6
QT ([1]; Dose Level 1, A1 400 msec): 325.4 ± 9.0
Atrial MAP50 ([1]; Dose Level 1, A1 600 msec): 172.8 ± 31.9
QRS ([1]; Dose Level 1, A1 600 msec): 89 ± 9
QT ([1]; Dose Level 1, A1 600 msec): 363 ± 27
QRS Ave Δ ([1]; Dose Level 1, V1 400): 7.6 ± 11.5%
QRS ([1]; Dose Level 1, V1 400 msec): 160.5 ± 23.0
QT ([1]; Dose Level 1, V1 400 msec): 381.5 ± 25.2
QRS ([1]; Dose Level 1, V1 600 msec): 169 ± 24
QT ([1]; Dose Level 1, V1 600 msec): 433 ± 30
AERP 400 Ave Δ ([1]; Dose Level 2): 14.7 ± 11.5 %
AERP 400 Ave Δ (Change from Baseline) ([1]; Dose Level 2): 24.4 ± 17.8 ms
AERP 600 Ave Δ ([1]; Dose Level 2): 16.9 ± 9.0 %
SNRT (A1 400) ([1]; Dose Level 2): 1047.1 ± 212.2 ms
SNRT (A1 600) ([1]; Dose Level 2): 1033.3 ± 247.8 ms
Wenckebach Cycle Length ([1]; Dose Level 2): 366.9 ± 53.7 ms
Diastolic BP ([1]; Dose Level 2, 4 mg/kg): 75 ± 9 mm Hg
HEART RATE ([1]; Dose Level 2, 4 mg/kg): 91 ± 19 bpm
Systolic BP ([1]; Dose Level 2, 4 mg/kg): 126 ± 15 mm Hg
AERP ([1]; Dose Level 2, 300 msec): 192.8 ± 20.2
AERP ([1]; Dose Level 2, 400 msec): 206.7 ± 25.6
VERP ([1]; Dose Level 2, 400 msec): 227.5 ± 16.3
AH interval ([1]; Dose Level 2, 400 msec pacing): 147.0 ± 67.6
HV interval ([1]; Dose Level 2, 400 msec pacing): 50.2 ± 8.4
PA interval ([1]; Dose Level 2, 400 msec pacing): 75.8 ± 24.4
PR interval ([1]; Dose Level 2, 400 msec pacing): 261.2 ± 60.4
AERP ([1]; Dose Level 2, 600 msec): 227.9 ± 22.5
VERP ([1]; Dose Level 2, 600 msec): 261.7 ± 16.3
AH interval ([1]; Dose Level 2, 600 msec pacing): 101.7 ± 21.5
HV interval ([1]; Dose Level 2, 600 msec pacing): 50.9 ± 7.0
PA interval ([1]; Dose Level 2, 600 msec pacing): 69.1 ± 21.5
PR interval ([1]; Dose Level 2, 600 msec pacing): 224.6 ± 18.8
Atrial MAP50 ([1]; Dose Level 2, A1 200 msec): 124.0
Atrial MAP50 ([1]; Dose Level 2, A1 250 msec): 130.0 ± 14.5
Atrial MAP50 ([1]; Dose Level 2, A1 300 msec): 135.6 ± 20.4
Atrial MAP50 ([1]; Dose Level 2, A1 400 msec): 143.7 ± 25.2
QRS ([1]; Dose Level 2, A1 400 msec): 86.4 ± 9.0
QT ([1]; Dose Level 2, A1 400 msec): 336.7 ± 27.8
Atrial MAP50 ([1]; Dose Level 2, A1 600 msec): 165.5 ± 33.3
QRS ([1]; Dose Level 2, A1 600 msec): 89 ± 8
QT ([1]; Dose Level 2, A1 600 msec): 364 ± 20
QRS ([1]; Dose Level 2, V1 400 msec): 157.3 ± 22.5
QT ([1]; Dose Level 2, V1 400 msec): 376.3 ± 32.5
QRS ([1]; Dose Level 2, V1 600 msec): 157 ± 15
QT ([1]; Dose Level 2, V1 600 msec): 412 ± 30
effect on ventricular refractoriness, repolarization or conduction ([1]; at the doses studied): no significant effect
conduction effect in the AV node, His Purkinje, and ventricular tissue ([1]; conclusion of study): small but significant conduction slowing effect
effect on atrial refractory periods ([1]; conclusion of study): dose-dependently prolongs
patients with a metallic taste in mouth ([1]; n=19, both dose levels): three
patients with a transient tingling sensation ([1]; n=19, both dose levels): four
patients with numbness in tongue ([1]; n=19, both dose levels): one
patients with transient hypotension ([1]; n=19, both dose levels): one
concentration at 45 min ([2]; Dose Level 1, 2 mg/kg): 1080 ± 279 ng/mL
concentration at 45 min ([2]; Dose Level 2, 4 mg/kg): 2170 ± 422 ng/mL
Plasma drug levels at 24 h post-infusion (below the limit of detection) ([3]; RSD-1, majority of patients): < 5 ng/mL
mean plasma levels at 24 h ([3]; RSD-2 group): 17 ng/mL
Mean peak plasma levels ([3]; patients that received both 0.5 and 1.0 mg/kg): 1.9 µg/mL
Mean peak plasma levels ([3]; patients that received both the 2.0 and 3.0 mg/kg infusions): 5.8 µg/mL
mean peak plasma levels at the end of infusion [3, 5]: 2.6 µg/mL
mean terminal elimination half life [3, 5]: 3.1 h
median plasma level at the time of AF conversion [3, 5]: 1.3 µg/mL
patients with recurrence of atrial fibrillation (serious adverse event) [4, 6]: 6%
patients with serious adverse events [4, 6]: 13%
converted patients relapsed within 24 hrs of administration ([4]; 3 hours to 7 days group converters): one
median time to conversion ([4]; 3 hours to 7 days group, seventy-five converters): eleven
Number of Patients Converted to Sinus Rhythm [4, 7]: 6
Patients (%) Converted to Sinus Rhythm [4, 7]: 8%
Number of Patients Converted to Sinus Rhythm [4, 8]: 75
Patients (%) Converted to Sinus Rhythm [4, 8]: 52%
Number of Patients Converted to Sinus Rhythm ([4]; Entire Group, AF 3 hr-45 days): 83
Patients (%) Converted to Sinus Rhythm ([4]; Entire Group, AF 3 hr-45 days): 38%
drug-related Torsades de Pointes ([4]; in vivo): no cases
patients with transient alteration in taste ([4]; in vivo): 30%
